In the supplement of paper PMC10307832:

How the values were obtained:
Assay in all cases: relative viability (nuclei count vs DMSO), 5 days (fraction); higher = more cells survive
IPA-3 + Luminespib = compound: C1=CC=C2C(=C1)C=CC(=C2SSC3=C(C=CC4=CC=CC=C43)O)O [IPA-3] + CCNC(=O)c1noc(-c2cc(C(C)C)c(O)cc2O)c1-c1ccc(CN2CCOCC2)cc1 [Luminespib] (partner 0.01 µM)
Summary of the method: (§1)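 Nuclei were stained with Hoechst during a one-step fixation (final 0.05% Triton X-100, 1% formaldehyde, 1 ug/ml Hoechst) carried out 5 days after dosing, then counted on 4× images. The cells, lung cancer lines in 1536-well plates, had been dosed by pin tool the day after seeding with one drug alone or a fixed anchor-drug dose plus five library-drug doses (not always all listed) in √10 steps. Relative viability is the nuclei count in treated wells divided by that in vehicle wells, and each value is the median of duplicate plates.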

Doramapimod + Lapatinib = compound: Cc1ccc(-n2nc(C(C)(C)C)cc2NC(=O)Nc2ccc(OCCN3CCOCC3)c3ccccc23)cc1 [Doramapimod] + CS(=O)(=O)CCNCc1ccc(-c2ccc3ncnc(Nc4ccc(OCc5cccc(F)c5)c(Cl)c4)c3c2)o1 [Lapatinib] (partner 2 µM)
Summary of the method: as §1

Doramapimod + Pemetrexed = compound: Cc1ccc(-n2nc(C(C)(C)C)cc2NC(=O)Nc2ccc(OCCN3CCOCC3)c3ccccc23)cc1 [Doramapimod] + Nc1nc2[nH]cc(CCc3ccc(C(=O)N[C@@H](CCC(=O)O)C(=O)O)cc3)c2c(=O)[nH]1 [Pemetrexed] (partner 0.2 µM)
Summary of the method: as §1

RAF265 + Decitabine = compound: Cn1c(Nc2ccc(C(F)(F)F)cc2)nc2cc(Oc3ccnc(-c4ncc(C(F)(F)F)[nH]4)c3)ccc21 [RAF265] + Nc1ncn([C@H]2C[C@H](O)[C@@H](CO)O2)c(=O)n1 [Decitabine] (partner 2 µM)
Summary of the method: as §1

UMC-11
relative viability (IPA-3 + Luminespib; first compound 0.2 µM): 1.12
relative viability (IPA-3 + Luminespib; first compound 0.6325 µM): 0.94
relative viability (IPA-3 + Luminespib; first compound 2 µM): 1.05
relative viability (IPA-3 + Luminespib; first compound 6.325 µM): 1.06
relative viability (IPA-3 + Luminespib; first compound 20 µM): 1.53
relative viability (Doramapimod + Lapatinib; first compound 0.02 µM): 1.09
relative viability (Doramapimod + Lapatinib; first compound 0.06325 µM): 0.957
relative viability (Doramapimod + Lapatinib; first compound 0.2 µM): 0.901
relative viability (Doramapimod + Lapatinib; first compound 0.6325 µM): 0.743
relative viability (Doramapimod + Lapatinib; first compound 2 µM): 0.654
relative viability (Doramapimod + Pemetrexed; first compound 0.02 µM): 0.711
relative viability (Doramapimod + Pemetrexed; first compound 0.06325 µM): 0.739
relative viability (Doramapimod + Pemetrexed; first compound 0.2 µM): 0.75
relative viability (Doramapimod + Pemetrexed; first compound 0.6325 µM): 0.708
relative viability (Doramapimod + Pemetrexed; first compound 2 µM): 0.743
relative viability (RAF265 + Decitabine; first compound 0.01 µM): 0.621
relative viability (RAF265 + Decitabine; first compound 0.03162 µM): 0.404
relative viability (RAF265 + Decitabine; first compound 0.1 µM): 0.621
relative viability (RAF265 + Decitabine; first compound 0.3162 µM): 0.604
relative viability (RAF265 + Decitabine; first compound 1 µM): 0.363
